According to patent US12569468B2, “Use of palovarotene in treatment against HBV virus” (YANG SHENG TANG COMPANY, LTD., priority 2020, dated 2026):

Key:
HBV [1] = experiment: Inhibitory effect on HBV infection in infection model HepaRG M14A (drug before infection); format: cell-based, hepatitis B virus; conditions: 1, 5, 25 μM, treatment before infection
Protocol: HepaRG was a hepatic progenitor cell line with differentiation potential which was isolated from the tumor tissue of a hepatitis C patient. After two weeks of cell plating, the cellular differentiation was induced with 2% DMSO (2 mL of DMSO was added to per 100 mL of cell culture medium) for two weeks. Finally, about 50% of the cells differentiated into hepatocyte-like cells, and the other 50% of the cells differentiated into cholangiocyte-like cells. Among them, hepatocyte-like cells supported HBV infection with an infection efficiency of about 20%. Through genetic modification of HepaRG, the HNF4A and FoxM1 genes were integrated into HepaRG cells, and a HepaRG M14A cell line that could complete differentiation and support HBV infection independent of DMSO was obtained by screening. (For the construction method of this cell model, please refer to: Zhao Jinghua. Development, Optimization and Preliminary Application of in vitro models supporting HBV Infection [D]. Xiamen University, 2016.)
This experiment was carried out in a 24-well cell culture plate. […] About 1.5×10^5 HepaRG M14A cells were plated in each well, and 500 μL of medium D was added to each well. After cell plating, medium D was replaced every 2 days. After 13 days of cell plating, medium D was replaced with drug-containing medium D for drug treatment. After 24 hours of drug treatment, the cells were infected with HBV, and the amount of HBV for infection in each well was 1000 MOI. Before infection, an HBV solution was obtained by diluting HBV in medium E, and the infection volume was 250 μL per well. During infection, the cell supernatant was first removed by suction, the HBV solution was added to the cells, then the cells were incubated for 24 hours, and then the supernatant was collected as the sample of Day 0. Then, the cells were washed three times with PBS warmed in bath at 37° C., and fresh drug-containing medium D (500 μL per well) was used for replacement, then the supernatant was collected every 2 days for detection, and fresh drug-containing medium D was used for replacement, until the 8th day, all the supernatant and cells were collected for related detection. The detection items include HBsAg, HBeAg, HBV DNA, HBV cccDNA, and for the detection method, please refer to Example 1.

HBV [2] = experiment: Inhibitory effect on HBV infection in human primary hepatocytes (drug before infection); format: cell-based, hepatitis B virus; conditions: 1, 5, 25 μM, treatment before infection, to day 8, p<0.05
Source text: Primary hepatocytes were isolated from humanized mice transplanted with primary human hepatocytes through perfusion technique (refer to: Foquet, Lander, et al. “Successful engraftment of human hepatocytes in uPA-SCID and FRG® KO mice.” Hepatocyte Transplantation. Humana Press, New York, NY, 2017. 117-130, Wan-Chun Li, et al. “Isolation and Culture of Adult Mouse Hepatocytes.” Mouse Cell Culture. Humana Press, 2010. 185-196.), directly cultured in 24-well plates (Collagen I pre-coated 24-well plates, purchased from Thermo Scientific) after counting (about 5×10^5 primary hepatocytes per well), and medium H was added to maintain hepatocyte morphology (refer to: Xiang, Chengang, et al. “Long-term functional maintenance of primary human hepatocytes in vitro.” Science 364.6438 (2019): 399-402.). After culturing for 24 hours, drug-containing medium H was used to replace the drug-free medium H to perform drug treatment for 24 hours, and then infection was carried out with HBV, and the amount of HBV for infection in each well was 2000 MOI. Before infection, HBV was first diluted in medium I to obtain HBV solution, and the infection volume was 250 μL/well. During infection, the cell supernatant was first removed by suction, the HBV solution was added to the cells, the cells were incubated for 24 hours, then the supernatant was collected as the sample of Day 0. Then the cells were washed 3 times with PBS that was warmed in bath at 37° C., and fresh drug-containing medium H (500 μL per well) was used for replacement, then the supernatant was collected every two days for detection, fresh drug-containing medium H was used for replacement, until the 8th day, all the supernatants and cells were collected for relevant detection. The detection items included HBsAg, HBeAg, HBV DNA, HBV cccDNA, and for the detection method, please refer to Example 1.

HBV [3] = experiment: Therapeutic effect on human primary hepatocytes infected by HBV (drug from day 8 after infection); format: cell-based, hepatitis B virus; conditions: drug added 8 days after infection
Protocol: The drug to be tested and the positive control drug were diluted with medium H to the required concentrations, and to the blank group the same volume of medium H without drug was added.
Primary hepatocytes were isolated from humanized mice transplanted with primary human hepatocytes through perfusion technique, directly cultured in 24-well plates after counting (5×10^5 primary hepatocytes per well), and medium H was added to maintain hepatocyte morphology. Infection with HBV was performed 24 hours after culturing, the amount of HBV for infection in each well was 2000 MOI. Before infection, HBV was first dissolved in medium I to obtain HBV solution, and the infection volume was 250 μL/well. During infection, the cell supernatant was first removed by suction, the HBV solution was added to the cells, the cells were incubated for 24 hours, then the supernatant was collected as the sample of Day 0, and then the supernatant was collected every two days for detection, fresh medium H was used for replacement. On the 8th day, fresh drug-containing medium H was used for replacement to start the drug treatment, until the 14th day, all the supernatant and the cells were collected for relevant detection. The detection items included: HBsAg, HBeAg, HBV DNA, HBV cccDNA, and for the detection method, please refer to Example 1.

HepaRG M14a = experiment: Safety assessment, CCK-8 cell activity, HepaRG M14a; format: cell-based; conditions: 1 μM, 5 μM and 25 μM, 6 days treatment
Protocol: (§1) This experiment was carried out in a 96-well culture plate, with 8×10^4 corresponding cells plated in each well, and the corresponding medium volume was 100 μL, in which each drug to be tested in the HepG2-hNTCP 2B1, HepaRG M14A and primary hepatocyte experimental groups had three final concentrations of 1 μM, 5 μM and 25 μM, each drug to be tested in the HepAD38 cell experimental group had two final concentrations of 1 μM and 5 μM (the drug was diluted with the corresponding medium to the final concentrations, specifically please refer to Example 1, Example 2, Example 4 and Example 5), and to the blank group the same volume of culture medium without drug was added. After the cells had grown to a suitable density, drug was added to perform treatment for 6 days, during which, the medium was changed every two days with fresh drug-containing medium. After the drug treatment, 110 μL of medium containing Beyotime CCK-8 cell activity detection reagent (purchased from Beyotime, Art. No. C0038) (the volume ratio of medium to CCK-8 reagent was 100:10) was used for replacement, the cells were incubated at 37° C. for 30 min, and then all the supernatant was collected for detection of absorbance. The absorbance value was read on PHOMO microplate reader purchased from Zhengzhou Autobio.

[4] = test system: human primary hepatocytes; experiment: Safety assessment, CCK-8 cell activity, human primary hepatocytes; format: cell-based; conditions: 1 μM, 5 μM and 25 μM, 6 days treatment
Protocol: as §1

[5] = to day 14, p<0.05, more obvious at 5 μM and 25 μM

## CC1(C)CCC(C)(C)c2cc(Cn3cccn3)c(/C=C/c3ccc(C(=O)O)cc3)cc21 [Palovarotene]
HBV [1]; to day 8, p<0.0001
  level of intracellular HBV DNA: significantly reduce
  level of intracellular cccDNA: significantly reduce
HBV [1]; to day 8, p<0.05
  level of HBeAg in cell supernatant: significantly reduce
  level of HBsAg in cell supernatant: significantly reduce
HBV [2]
  level of HBeAg in the cell supernatant: significantly inhibit
  level of HBsAg in the cell supernatant: significantly inhibit
  level of intracellular HBV DNA: significantly inhibit
  level of intracellular cccDNA: significantly inhibit
HBV [3]; to day 14, 25 μM, p<0.01
  HBV cccDNA: significant inhibitory effects
HBV [3]; to day 14, 25 μM, p<0.05
  HBV DNA: significant inhibitory effects
HBV [3]; [5]
  level of HBeAg in the cell supernatant: significantly inhibited
  level of HBsAg in the cell supernatant: significantly inhibited
HepaRG M14a
  CCK-8 absorbance value (cell activity) vs blank group: not significantly different
[4]
  CCK-8 absorbance value (cell activity) vs blank group: not significantly different
